Assays:
Tyk2 = Tyk2 (Homo sapiens (Human), UniProt P29597); experiment: pSTAT4 Cell Assay (MSD, NK92 cells); assay type: cell-based; conditions: MSD
JH2 domain of human Tyk2 = JH2 domain of human Tyk2 (Homo sapiens (Human), UniProt P29597); experiment: JH2 Biochemical Assay (TR-FRET probe displacement); assay type: binding; conditions: JH2 domain of human Tyk2, TR-FRET probe displacement
JH2 domain of human Tyk2, sequence (P29597 575-876): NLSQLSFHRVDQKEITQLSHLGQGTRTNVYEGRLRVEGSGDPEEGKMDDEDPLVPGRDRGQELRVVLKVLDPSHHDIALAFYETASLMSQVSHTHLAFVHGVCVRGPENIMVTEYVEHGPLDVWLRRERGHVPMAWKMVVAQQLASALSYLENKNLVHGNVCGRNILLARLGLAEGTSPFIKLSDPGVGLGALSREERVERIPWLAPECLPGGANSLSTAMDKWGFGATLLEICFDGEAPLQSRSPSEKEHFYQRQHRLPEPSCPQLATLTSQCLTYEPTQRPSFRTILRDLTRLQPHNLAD

Tyk2, sequence (P29597 whole entry, the tested form may be a part): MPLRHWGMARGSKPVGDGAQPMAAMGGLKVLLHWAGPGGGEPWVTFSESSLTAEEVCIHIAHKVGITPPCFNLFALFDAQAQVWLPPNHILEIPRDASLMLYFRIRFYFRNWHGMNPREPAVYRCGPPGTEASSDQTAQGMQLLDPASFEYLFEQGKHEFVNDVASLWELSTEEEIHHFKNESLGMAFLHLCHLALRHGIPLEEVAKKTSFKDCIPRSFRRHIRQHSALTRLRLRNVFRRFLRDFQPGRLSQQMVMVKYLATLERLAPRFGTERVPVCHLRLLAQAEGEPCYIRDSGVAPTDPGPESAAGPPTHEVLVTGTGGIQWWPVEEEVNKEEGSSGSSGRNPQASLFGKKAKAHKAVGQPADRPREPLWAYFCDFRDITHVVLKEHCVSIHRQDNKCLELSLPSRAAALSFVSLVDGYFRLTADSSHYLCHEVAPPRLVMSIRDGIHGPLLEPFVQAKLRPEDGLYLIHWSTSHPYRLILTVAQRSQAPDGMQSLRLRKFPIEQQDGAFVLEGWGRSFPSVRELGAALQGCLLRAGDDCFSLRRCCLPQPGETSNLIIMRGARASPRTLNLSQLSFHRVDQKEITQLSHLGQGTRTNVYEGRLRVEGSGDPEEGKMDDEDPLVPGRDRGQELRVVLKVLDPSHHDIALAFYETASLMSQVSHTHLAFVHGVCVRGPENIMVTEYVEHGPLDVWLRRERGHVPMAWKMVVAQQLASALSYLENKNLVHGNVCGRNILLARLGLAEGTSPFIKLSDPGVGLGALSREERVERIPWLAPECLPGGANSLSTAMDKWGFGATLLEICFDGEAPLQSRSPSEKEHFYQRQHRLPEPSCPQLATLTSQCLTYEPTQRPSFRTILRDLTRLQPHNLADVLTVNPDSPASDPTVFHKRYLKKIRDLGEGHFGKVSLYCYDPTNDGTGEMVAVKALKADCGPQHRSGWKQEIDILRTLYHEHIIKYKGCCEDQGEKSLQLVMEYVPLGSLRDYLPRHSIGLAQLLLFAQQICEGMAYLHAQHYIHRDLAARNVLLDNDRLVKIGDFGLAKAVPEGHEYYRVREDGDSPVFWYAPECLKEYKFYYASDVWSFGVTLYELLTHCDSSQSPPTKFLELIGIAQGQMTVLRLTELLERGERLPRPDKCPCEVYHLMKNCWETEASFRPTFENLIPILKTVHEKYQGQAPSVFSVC

SMILES	IC50 (Tyk2)	IC50 (JH2 domain of human Tyk2)
CC(=O)Nc1cc(Nc2cc(C)nc(C(C)(F)F)n2)c(-c2cn(C)nn2)cn1 [Example 607, N-(4-((2-(1,1-difluoroethyl)-6-methylpyrimidin-4-yl)amino)-5-(1-methyl-1H-1,2,3-triazol-4-yl)pyridin-2-yl)acetamide]	≤ 10 nM	≤ 10 nM
CC(=O)Nc1cc(Nc2cc(C)nc(C(C)(F)F)n2)c(-c2cnn(C(C)C)n2)cn1 [Example 610, N-(4-((2-(1,1-difluoroethyl)-6-methylpyrimidin-4-yl)amino)-5-(2-isopropyl-2H-1,2,3-triazol-4-yl)pyridin-2-yl)acetamide]	≤ 10 nM	≤ 10 nM
CC(=O)Nc1cc(Nc2cc(C)nc(C(C)(F)F)n2)c(-c2nnc(C(C)(C)C)s2)cn1 [Example 611, N-(5-(5-(tert-butyl)-1,3,4-thiadiazol-2-yl)-4-((2-(1,1-difluoroethyl)-6-methylpyrimidin-4-yl)amino)pyridin-2-yl)acetamide]	≤ 10 nM	≤ 10 nM
CC(=O)Nc1cc(Nc2cc(C)nc(C(C)(F)F)n2)c(-c2csc(C(C)C)n2)cn1 [Example 612, N-(4-((2-(1,1-difluoroethyl)-6-methylpyrimidin-4-yl)amino)-5-(2-isopropylthiazol-4-yl)pyridin-2-yl)acetamide]	≤ 10 nM	≤ 10 nM
CCn1ccc(-c2cnc(NC(C)=O)cc2Nc2cc(C)nc(C(C)(F)F)n2)n1 [Example 613, N-(4-((2-(1,1-difluoroethyl)-6-methylpyrimidin-4-yl)amino)-5-(1-ethyl-1H-pyrazol-3-yl)pyridin-2-yl)acetamide]	≤ 10 nM	≤ 10 nM
CC(=O)Nc1cc(Nc2cc(C)nc(C(C)(F)F)n2)c(-c2ccn(CC3CC3)n2)cn1 [Example 614, N-(5-(1-(cyclopropylmethyl)-1H-pyrazol-3-yl)-4-((2-(1,1-difluoroethyl)-6-methylpyrimidin-4-yl)amino)pyridin-2-yl)acetamide]	≤ 10 nM	≤ 10 nM
CCCn1ccc(-c2cnc(NC(C)=O)cc2Nc2cc(C)nc(C(C)(F)F)n2)n1 [Example 615, N-(4-((2-(1,1-difluoroethyl)-6-methylpyrimidin-4-yl)amino)-5-(1-propyl-1H-pyrazol-3-yl)pyridin-2-yl)acetamide]	≤ 10 nM	≤ 10 nM
COc1nc(-c2cnc(NC(C)=O)cc2Nc2cc(C)nc(C(C)(F)F)n2)cs1 [Example 617, N-(4-((2-(1,1-difluoroethyl)-6-methylpyrimidin-4-yl)amino)-5-(2-methoxythiazol-4-yl)pyridin-2-yl)acetamide]	≤ 10 nM	≤ 10 nM
CC(=O)Nc1cc(Nc2cc(C)nc(C(C)(F)F)n2)c(-c2cc(C)n(C)n2)cn1 [Example 619, N-(4-((2-(1,1-difluoroethyl)-6-methylpyrimidin-4-yl)amino)-5-(1,5-dimethyl-1H-pyrazol-3-yl)pyridin-2-yl)acetamide]	≤ 10 nM	≤ 10 nM
CC(=O)Nc1cc(Nc2cc(C)nc(C(C)(F)F)n2)c(-c2cccc(F)n2)cn1 [Example 623, N-(4′-((2-(1,1-difluoroethyl)-6-methylpyrimidin-4-yl)amino)-6-fluorO[2,3′-bipyridin]-6′-yl)acetamide]	≤ 10 nM	≤ 10 nM
CC(=O)Nc1cc(Nc2cc(C)nc(C(C)(F)F)n2)c(-c2cc(N(C)C)ccn2)cn1 [Example 627, N-(4′-((2-(1,1-difluoroethyl)-6-methylpyrimidin-4-yl)amino)-4-(dimethylamino)-[2,3′-bipyridin]-6′-yl)acetamide]	≥ 1000 nM	100 to 1000 nM
CC(=O)Nc1cc(Nc2cc(C)nc(C(C)(F)F)n2)c(-c2cccc(N3CCOCC3)n2)cn1 [Example 628, N-(4′-((2-(1,1-difluoroethyl)-6-methylpyrimidin-4-yl)amino)-6-morpholinO[2,3′-bipyridin]-6′-yl)acetamide]	≤ 10 nM	≤ 10 nM
CC(=O)Nc1cc(Nc2cc(C)nc(C(C)(F)F)n2)c(-c2cccc(C#N)n2)cn1 [Example 630, N-(6-cyanO4′-((2-(1,1-difluoroethyl)-6-methylpyrimidin-4-yl)amino)-[2,3′-bipyridin]-6′-yl)acetamide]	≤ 10 nM	≤ 10 nM
CC(=O)Nc1cc(Nc2cc(C)nc(C(C)(F)F)n2)c(-c2cc(C#N)ccn2)cn1 [Example 631, N-(4-cyanO4′-((2-(1,1-difluoroethyl)-6-methylpyrimidin-4-yl)amino)-[2,3′-bipyridin]-6′-yl)acetamide]	10 to 100 nM	≤ 10 nM
CC(=O)Nc1cc(Nc2cc(C)nc(C(C)(F)F)n2)c(-c2ncc(C#N)cc2F)cn1 [Example 632, N-(5-cyanO4′-((2-(1,1-difluoroethyl)-6-methylpyrimidin-4-yl)amino)-3-fluorO[2,3′-bipyridin]-6′-yl)acetamide]	≥ 1000 nM	10 to 100 nM
CC(=O)Nc1cc(Nc2cc(C)nc(C(C)(F)F)n2)c(-c2ccc(F)c(C#N)n2)cn1 [Example 633, N-(6-cyanO4′-((2-(1,1-difluoroethyl)-6-methylpyrimidin-4-yl)amino)-5-fluorO[2,3′-bipyridin]-6′-yl)acetamide]	≤ 10 nM	≤ 10 nM

SMILES	IC50 (Tyk2)	IC50 (JH2 domain of human Tyk2)
COc1cccc(-c2cnc(NC(C)=O)cc2Nc2cc(C)nc(C(C)(F)F)n2)n1 [Example 635, N-(4′-((2-(1,1-difluoroethyl)-6-methylpyrimidin-4-yl)amino)-6-methoxy-[2,3′-bipyridin]-6′-yl)acetamide]	≤ 10 nM	≤ 10 nM
COc1ccc(-c2cnc(NC(C)=O)cc2Nc2cc(C)nc(C(C)(F)F)n2)nc1OC [Example 637, N-(4′-((2-(1,1-difluoroethyl)-6-methylpyrimidin-4-yl)amino)-5,6-dimethoxy-[2,3′-bipyridin]-6′-yl)acetamide]	≤ 10 nM	≤ 10 nM
CC(=O)Nc1cc(Nc2cc(C)nc(C(C)(F)F)n2)c(-c2cccc(C3CN(C)CCO3)n2)cn1 (centres unmarked) [Example 640, N-(4′-((2-(1,1-difluoroethyl)-6-methylpyrimidin-4-yl)amino)-6-(4-methylmorpholin-2-yl)-[2,3′-bipyridin]-6′-yl)acetamide]	≤ 10 nM	≤ 10 nM
CC(=O)Nc1cc(Nc2cc(C)nc(C(C)(F)F)n2)c(-c2cccc(C3CCCCO3)n2)cn1 (centres unmarked) [Example 647, N-(4′-((2-(1,1-difluoroethyl)-6-methylpyrimidin-4-yl)amino)-6-(tetrahydro2H-pyran-2-yl)-[2,3′-bipyridin]-6′-yl)acetamide]	≤ 10 nM	≤ 10 nM
CC(=O)Nc1cc(Nc2cc(C)nc(C(C)(F)F)n2)c(-c2ccc(CN3CCOCC3)cn2)cn1 [Example 649, N-(4′-((2-(1,1-difluoroethyl)-6-methylpyrimidin-4-yl)amino)-5-(morpholinomethyl)-[2,3′-bipyridin]-6′-yl)acetamide]	≤ 10 nM	≤ 10 nM
CC(=O)Nc1cc(Nc2cc(C)nc(C(C)(F)F)n2)c(-c2cccc(CN3CCOCC3)n2)cn1 [Example 650, N-(4′-((2-(1,1-difluoroethyl)-6-methylpyrimidin-4-yl)amino)-6-(morpholinomethyl)-[2,3′-bipyridin]-6′-yl)acetamide]	≤ 10 nM	≤ 10 nM
CC(=O)Nc1cc(Nc2cc(C)nc(C(C)(F)F)n2)c(-c2cccc(C(C)(C)C#N)n2)cn1 [Example 654, N-(6-(2-cyanopropan-2-yl)-4′-((2-(1,1-difluoroethyl)-6-methylpyrimidin-4-yl)amino)-[2,3′-bipyridin]-6′-yl)acetamide]	≤ 10 nM	≤ 10 nM
COc1cnc(-c2cnc(NC(C)=O)cc2Nc2cc(C)nc(C(C)(F)F)n2)nc1 [Example 656, N-(4-((2-(1,1-difluoroethyl)-6-methylpyrimidin-4-yl)amino)-5-(5-methoxypyrimidin-2-yl)pyridin-2-yl)acetamide]	≤ 10 nM	≤ 10 nM
CC(=O)Nc1cc(Nc2cc(C)nc(C(C)(F)F)n2)c(-c2nc(C)cc(C#N)n2)cn1 [Example 657, N-(5-(4-cyanO6-methylpyrimidin-2-yl)-4-((2-(1,1-difluoroethyl)-6-methylpyrimidin-4-yl)amino)pyridin-2-yl)acetamide]	100 to 1000 nM	10 to 100 nM
CC(=O)Nc1cc(Nc2cc(C)nc(C(C)(F)F)n2)c(-c2cnc(COC(F)F)cn2)cn1 [Example 662, N-(4-((2-(1,1-difluoroethyl)-6-methylpyrimidin-4-yl)amino)-5-(5-((difluoromethoxy)methyl)pyrazin-2-yl)pyridin-2-yl)acetamide]	10 to 100 nM	≤ 10 nM
COc1nc(-c2cnc(NC(C)=O)cc2Nc2cc(C)nc(C(C)(F)F)n2)ncc1C [Example 663, N-(4-((2-(1,1-difluoroethyl)-6-methylpyrimidin-4-yl)amino)-5-(4-methoxy-5-methylpyrimidin-2-yl)pyridin-2-yl)acetamide]	≥ 1000 nM	10 to 100 nM
COCc1cc(-c2cnc(NC(C)=O)cc2Nc2cc(C)nc(C(C)(F)F)n2)ncn1 [Example 665, N-(4-((2-(1,1-difluoroethyl)-6-methylpyrimidin-4-yl)amino)-5-(6-(methoxymethyl)pyrimidin-4-yl)pyridin-2-yl)acetamide]	10 to 100 nM	≤ 10 nM
CC(=O)Nc1cc(Nc2cc(C)nc(C(C)(F)F)n2)c(-c2nccc(C3CC3)n2)cn1 [Example 666, N-(5-(4-cyclopropylpyrimidin-2-yl)-4-((2-(1,1-difluoroethyl)-6-methylpyrimidin-4-yl)amino)pyridin-2-yl)acetamide]	100 to 1000 nM	≤ 10 nM
CC(=O)Nc1cc(Nc2cc(C)nc(C(C)(F)F)n2)c(-c2cncc(C3CC3)n2)cn1 [Example 667, N-(5-(6-cyclopropylpyrazin-2-yl)-4-((2-(1,1-difluoroethyl)-6-methylpyrimidin-4-yl)amino)pyridin-2-yl)acetamide]	10 to 100 nM	≤ 10 nM
CC(=O)Nc1cc(Nc2cc(C)nc(C(C)(F)F)n2)c(-c2ncc(Cl)cn2)cn1 [Example 669, N-(5-(5-chloropyrimidin-2-yl)-4-((2-(1,1-difluoroethyl)-6-methylpyrimidin-4-yl)amino)pyridin-2-yl)acetamide]	10 to 100 nM	≤ 10 nM
